The source of these data is publication PMC8123395, “Aggregation and Its Influence on the Bioactivities of a Novel Antimicrobial Peptide, Temporin-PF, and Its Analogues” (International Journal of Molecular Sciences, 2021).

The nature of series [1]: Circular dichroism, helix content by BeStSel. The note with it: CD, room temperature, BeStSel analysis. Type of series: physicochemical. The method, then: Figure 8 CD spectra of TPF and the analogs (50 μM) prepared in 10 mM NH4AC, 50% TFE/10 mM NH4AC, 3 mM DPPG/DPPE (88:12) SUVs, and 3 mM DPPC SUVs. The spectra were averaged over three consecutive scans, and the solvent CD signal was subtracted.
The determination of the secondary structure of peptides was conducted using a JASCO J-815 CD Spectropolarimeter (JASCO Inc., Tokyo, Japan) as described in the previous study. Then, 50 μM of each peptide sample was prepared in the aqueous 10 mM ammonium acetate (NH4Ac; Sigma-Aldrich, Gillingham, UK) buffer, 50% (v/v) 2,2,2-trifluoroethanol (TFE; Sigma-Aldrich, Gillingham, UK), and 3 mM DPPG:DPPE (88:12) and DPPC small unilamellar liposomes/vesicles (SUVs) that were used to mimic the bacterial and mammalian erythrocyte cell membranes, respectively. The liposome was hydrated in deionized water and then sonicated for 15 min with an interval 30 s in an ice bath for generating SUVs. Samples were loaded in a 1-mm thickness quartz cuvette and analyzed at room temperature with the following parameters: scan range of 190–250 nm, scanning speed of […], 1 nm bandwidth, and 0.5 nm data pitch. The spectra were obtained by averaging data from three scans. The CD spectra were analyzed by BeStSel (http://bestsel.elte.hu/index.php, accessed on 16 May 2020) for the determination of secondary structure content.

A further series has as its system S. aureus (NCTC 10788). The experiment in a line: SYTOX Green stain uptake assay (membrane permeabilization). The note with it: peptide 10 µM, within 120 min, 37 °C, relative to 70% isopropanol-treated cells, three replicates. Type of series: cell-based. The protocol: Figure 10 Membrane permeabilization effect of TPF and the analogs (10 µM) on Gram-positive bacteria S. aureus was indicated by the uptake of SYTOX Green dye over 120 min. The error bar represents SD of three replicates.
A membrane permeability assay was conducted on S. aureus (NCTC 10788) and E.coli (NCTC 10418) using the SYTOX™ Green Nucleic Acid Stain (Thermo Fisher Scientific, Waltham, MA, USA) as described previously, with some modifications. For S. aureus, to obtain the fluorescence kinetics of membrane permeabilization, the bacterial suspension and peptide solutions, prepared in 5% tryptic soy broth (TSB) (v/v) in 0.85% NaCl solution (m/v), were mixed to give a final concentration at 10 µM in a black 96-well plate, and further incubated for 120 min at 37 °C. Subsequently, 5 µM SYTOX Green nucleic acid stain was added into each well and immediately detected by a fluorescent plate reader with excitation of 485 nm and emission of 528 nm. The total permeabilized cells of S. aureus were prepared by treating with 70% isopropanol and further resuspended in 5% TSB/0.85% NaCl solution after washing.

In series [2] the test system is Staphylococcus aureus (NCTC 10788). Type of series: cell-based. The note with it: NCTC 10788, pH 7.4. The method, then:
(§1) The minimum inhibitory concentration (MIC) and minimum bactericidal concentration (MBC) of peptides against the selected microorganisms were determined using the broth-dilution method, as described in the previous study. […] were used in the assay: Gram-positive bacteria Staphylococcus aureus (NCTC 10788), Enterococcus faecalis (NCTC 12697), and methicillin-resistant S. aureus (MRSA) (NCTC 12493); Gram-negative bacteria Escherichia coli (NCTC 10418), Pseudomonas aeruginosa (ATCC 27853), and Klebsiella pneumoniae (ATCC 43816). All the strains were cultured in Mueller Hinton Broth (MHB), pH 7.4 (Oxiod, Basingstoke, UK). Each peptide was tested at the final concentration from 128 to 1 µM in two-fold dilution. Norfloxacin was applied as the positive control.

Series [3] concerns Klebsiella pneumoniae (ATCC 43816). Type of series: cell-based. The note with it: ATCC 43816, pH 7.4. The method, then: as §1
Series [4] relates to Enterococcus faecalis (NCTC 12697). Type of series: cell-based. The note with it: NCTC 12697, pH 7.4. The method, then: as §1
In series [5] the test system is Escherichia coli (NCTC 10418). The series is classed as cell-based. The note with it: NCTC 10418, pH 7.4. The protocol:
as §1

Series [6] concerns methicillin-resistant S. aureus (MRSA) (NCTC 12493). The series is classed as cell-based. The note with it: NCTC 12493, pH 7.4. The protocol: as §1
Series [7] deals with Pseudomonas aeruginosa (ATCC 27853). Type of series: cell-based. The note with it: ATCC 27853, pH 7.4. The method, then:
as §1

Series [8] in a line: Observation of aggregation: turbidity (absorbance at 600 nm) in media and salt solutions. The series is classed as physicochemical. The note with it: peptide 1 mg/mL; 0.25, 0.5 and 1 M Na2HPO4, CaCl2 or MgCl2; absorbance 600 nm. The method, then: Figure 3 The absorbance of TPF and the analogs prepared in (a) a series of culture media, including PBS, RPMI1640, RPMI1640 with 10% FBS, TSB, and MHB; 0.25, 0.5, and 1 M of (b) Na2HPO4, (c) CaCl2, and (d) MgCl2 solutions. Peptide solutions were prepared from 1 mg/mL, and the wavelength was set as 600 nm. The error bar represents the standard deviation (SD) with three replicates.
The method was followed the previous study with modifications. The purified peptides were prepared at 10 mg/mL in water and subsequently diluted with different solutions, including PBS, RPMI1640, RPMI1640 with 10% FBS, TSB, MHB, Na2HPO4 (0.25, 0.5, and 1 M), CaCl2 (0.25, 0.5, and 1 M), and MgCl2 (0.25, 0.5, and 1 M), in a 96-well plate to achieve the final concentration of 1 mg/mL. The turbidity of each well was detected using the absorbance at 600 nm by a plate reader. The peptides dissolved in water were applied as negative control.

No end group written: not given here.

For orientation: MBC means the smallest concentration meeting the test's criterion for killing. Higher therefore signals less potent killing. What is called MIC is the lowest concentration found to suppress growth. Higher therefore signals weaker potency. On to LPLIAGLFGKIF-NH2 [des-Phe1 TPF], for which the “Helix Content % DPPC” value in [1] (50 μM peptide in 3 mM DPPC SUVs (erythrocyte membrane mimic)) is listed as 16.4%. In addition, the “Helix Content % DPPG/DPPE” value in series [1] (50 μM peptide in 3 mM DPPG/DPPE (88:12) SUVs (bacterial membrane mimic)) was 26.7%. Also, the “Helix Content % 50% TFE” value in series [1] (50 μM peptide in 50% TFE/10 mM NH4AC, three scans averaged) came out at 37.7%. The membrane permeabilization entry in the series with S. aureus (NCTC 10788) is reported as “over 50%”. The MBC in [2] is 16 µM; in series [3], 128 µM; in series [4] it was 32 µM; in [5], 128 µM; in series [6], 32 µM; in series [7] it was > 128 µM. Also, the MIC in [2] was 16 µM; in series [3] it was 128 µM; in [4], 32 µM; in series [5], 64 µM; in series [6] it was 32 µM; in series [7], > 128 µM. In series [8], the “aggregation (salting-out) in salt solutions” value is recorded as “low degree of capability for aggregation”.
